Source: ChEMBL document CHEMBL1201862, “PubChem BioAssay data set” (2004)
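Values below derive from 48-hour exposures of cells grown in 96-well plates, with endpoints linearly interpolated between the two concentrations bracketing the appropriate inhibition level. At the GI50, growth is halved.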 The source made the active and inactive calls. Cut-off read from the data, not from the text of the source: active = GI50 up to about 1.1 µM and inactive = higher.

What was measured:
Test in all cases: NCI-60 cell line screen, 48 h
[1] = test system: LOX IMVI
[2] = test system: LXFL 529
[3] = test system: SNB-19
[4] = test system: SK-OV-3
[5] = test system: EKVX
[6] = test system: DMS-114
[7] = test system: SF-268
[8] = test system: MOLT-4
[9] = test system: SF-295
[10] = test system: ACHN
[11] = test system: M19-MEL
[12] = test system: RPMI-8226
[13] = test system: SN12C
[14] = test system: NCI-H522
[15] = test system: A549
[16] = test system: HOP-92
[17] = test system: TK-10
[18] = test system: U-251
[19] = test system: Malme-3M
[20] = test system: HT-29
[21] = test system: SK-MEL-28
[22] = test system: CCRF-CEM
[23] = test system: DLD-1
[24] = test system: HL-60
[25] = test system: UACC-62
[26] = test system: XF498
[27] = test system: M14
[28] = test system: CAKI-1
[29] = test system: RXF 393
[30] = test system: HCT-116
[31] = test system: SW-620
[32] = test system: COLO 205
[33] = test system: SNB-75
[34] = test system: UACC-257
[35] = test system: NCI-H23
[36] = test system: NCI-H460
[37] = test system: DMS-273
[38] = test system: HCT-15
[39] = test system: K562
[40] = test system: 786-0
[41] = test system: IGROV-1
[42] = test system: SNB-78
[43] = test system: RXF 631
[44] = test system: HCC 2998
[45] = test system: UO-31
[46] = test system: SK-MEL-5
[47] = test system: OVCAR-4
[48] = test system: SK-MEL-2
[49] = test system: OVCAR-5
[50] = test system: OVCAR-8
[51] = test system: A498
[52] = test system: KM12
[53] = test system: HOP-62
[54] = test system: SF-539
[55] = test system: OVCAR-3
[56] = test system: MDA-N
[57] = test system: NCI-H226
[58] = test system: MDA-MB-435
[59] = test system: PC-3
[60] = test system: HOP-18
[61] = test system: BT-549
[62] = test system: SR
[63] = test system: T47D
[64] = test system: Hs-578T
[65] = test system: KM-20L2
[66] = test system: NCI/ADR-RES
[67] = test system: MDA-MB-231
[68] = test system: DU-145
[69] = test system: MCF7

COC(=O)C1CCC(C)CC1=O (stereo not drawn)
GI50 [1]: > 100 µM (inactive)
GI50 [2]: > 100 µM (inactive)
GI50 [3]: > 100 µM (inactive)
GI50 [4]: > 100 µM (inactive)
GI50 [5]: > 100 µM (inactive)
GI50 [6]: > 100 µM (inactive)
GI50 [7]: > 100 µM (inactive)
GI50 [8]: > 100 µM (inactive)
GI50 [9]: > 100 µM (inactive)
GI50 [10]: > 100 µM (inactive)
GI50 [11]: > 100 µM (inactive)
GI50 [12]: > 100 µM (inactive)
GI50 [13]: > 100 µM (inactive)
GI50 [14]: > 100 µM (inactive)
GI50 [15]: > 100 µM (inactive)
GI50 [16]: > 100 µM (inactive)
GI50 [17]: > 100 µM (inactive)
GI50 [18]: > 100 µM (inactive)
GI50 [19]: > 100 µM (inactive)
GI50 [20]: > 100 µM (inactive)
GI50 [21]: > 100 µM (inactive)
GI50 [22]: > 100 µM (inactive)
GI50 [23]: > 100 µM (inactive)
GI50 [24]: > 100 µM (inactive)
GI50 [25]: > 100 µM (inactive)
GI50 [26]: > 100 µM (inactive)
GI50 [27]: > 100 µM (inactive)
GI50 [28]: > 100 µM (inactive)
GI50 [29]: > 100 µM (inactive)
GI50 [30]: > 100 µM (inactive)
GI50 [31]: > 100 µM (inactive)
GI50 [32]: > 100 µM (inactive)
GI50 [33]: > 100 µM (inactive)
GI50 [34]: > 100 µM (inactive)
GI50 [35]: > 100 µM (inactive)
GI50 [36]: > 100 µM (inactive)
GI50 [37]: > 100 µM (inactive)
GI50 [38]: > 100 µM
GI50 [39]: > 100 µM (inactive)
GI50 [40]: > 100 µM (inactive)
GI50 [41]: > 100 µM (inactive)
GI50 [42]: > 100 µM (inactive)
GI50 [43]: > 100 µM (inactive)
GI50 [44]: > 100 µM (inactive)
GI50 [45]: > 100 µM (inactive)
GI50 [46]: > 100 µM (inactive)
GI50 [47]: > 100 µM (inactive)
GI50 [48]: > 100 µM (inactive)
GI50 [49]: > 100 µM (inactive)
GI50 [50]: > 100 µM (inactive)
GI50 [51]: > 100 µM (inactive)
GI50 [52]: > 100 µM (inactive)
GI50 [53]: 99.8 µM (inactive)
GI50 [54]: > 100 µM (inactive)
GI50 [55]: > 100 µM (inactive)

CCCCCCCCCCCCCC(=O)OC(/C=C/C(C)C)C(O)C(O)C(OC)C(=O)NC1CCCCN(C)C1=O (stereo not drawn)
GI50 [56]: > 10 µM (inactive)
GI50 [1]: 7.23 µM (inactive)
GI50 [2]: 2.97 µM (inactive)
GI50 [57]: 4.85 µM (inactive)
GI50 [3]: 1.45 µM (inactive)
GI50 [4]: 4.49 µM (inactive)
GI50 [5]: 9.06 µM (inactive)
GI50 [6]: 1.2 µM (inactive)
GI50 [7]: 5.27 µM (inactive)
GI50 [8]: 2.7 µM (inactive)
GI50 [58]: 5.25 µM (inactive)
GI50 [9]: 3.95 µM (inactive)
GI50 [10]: 4.31 µM (inactive)
GI50 [11]: 3.48 µM (inactive)
GI50 [12]: 2.07 µM (inactive)
GI50 [13]: 3.23 µM (inactive)
GI50 [59]: 7.48 µM (inactive)
GI50 [14]: 8.73 µM (inactive)
GI50 [15]: 0.575 µM (active)
GI50 [16]: 4 µM (inactive)
GI50 [60]: 3.54 µM (inactive)
GI50 [17]: 7.05 µM (inactive)
GI50 [18]: 6.5 µM (inactive)
GI50 [19]: 2.11 µM (inactive)
GI50 [20]: 6.3 µM (inactive)
GI50 [61]: > 10 µM (inactive)
GI50 [21]: 3.61 µM (inactive)
GI50 [22]: 3.95 µM (inactive)
GI50 [23]: 1.56 µM (inactive)
GI50 [24]: 1.74 µM (inactive)
GI50 [62]: 0.773 µM (active)
GI50 [25]: 3.21 µM (inactive)
GI50 [27]: 1.56 µM (inactive)
GI50 [28]: 1.19 µM (inactive)
GI50 [29]: 1.45 µM (inactive)
GI50 [30]: 0.927 µM (active)
GI50 [31]: 1.36 µM (inactive)
GI50 [63]: > 10 µM (inactive)
GI50 [32]: 1.85 µM (inactive)
GI50 [64]: > 10 µM (inactive)
GI50 [33]: 7.94 µM (inactive)
GI50 [34]: 4.84 µM (inactive)
GI50 [65]: 2.94 µM (inactive)
GI50 [35]: 9.91 µM (inactive)
GI50 [66]: > 10 µM (inactive)
GI50 [36]: 0.687 µM (active)
GI50 [37]: 0.817 µM (active)
GI50 [38]: 6 µM
GI50 [39]: 2.59 µM (inactive)
GI50 [67]: 1.86 µM (inactive)
GI50 [40]: 1.28 µM (inactive)
GI50 [41]: 0.457 µM (active)
GI50 [42]: 4.8 µM (inactive)
GI50 [43]: 1.18 µM (inactive)
GI50 [44]: 7.96 µM (inactive)
GI50 [45]: 1.34 µM (inactive)
GI50 [46]: 3.19 µM (inactive)
GI50 [68]: > 10 µM (inactive)
GI50 [47]: 6.12 µM (inactive)
GI50 [48]: 4.2 µM (inactive)
GI50 [49]: 4.36 µM (inactive)
GI50 [50]: 5.28 µM (inactive)
GI50 [51]: 4.67 µM (inactive)
GI50 [52]: 7.71 µM (inactive)
GI50 [53]: 3.15 µM (inactive)
GI50 [69]: 1.93 µM (inactive)
GI50 [54]: 3.62 µM (inactive)
GI50 [55]: 5.12 µM (inactive)
